Reference: US20050065068A1, “Methods and compositions for reducing serum phosphate levels” (priority 1999, published 2005)
Non-standard residues stand in square brackets, D forms with d. Residues, ends and D or L forms follow the SMILES beside them. No end group written: not given here. pS = N[C@@H](COP(=O)(O)O)C(=O)O

Key:
[1] = tested on: ovariectomized female Sprague Dawley rats; assay: Serum and urine chemistry in the ovariectomized rat osteoporosis model; assay type: in vivo; conditions: OVX rats; for Serum Ca^2+ / Urine Ca^2+ / Serum AP (serum alkaline phosphatase) / Serum Pi (serum inorganic phosphate): 200-208 μg/kg peptide oral daily for 84 days; for Serum Ca^2+ / Serum AP (serum alkaline phosphatase) / Serum Pi (serum inorganic phosphate): terminal sample Day 84
Excerpt: Ovariectomized rats were chosen for the efficacy study of a series of peptides. After a six (6) day quarantine/acclimation period, forty (40) ovariectomized female Sprague Dawley outbred (Crl:CD®IGS BR) rats were randomly allocated into five experimental groups of eight animals each. A sixth group was composed of eight sham-operated Sprague Dawley rats. The experimental design consisted of four test-article groups and two vehicle control groups (one ovariectomized and one sham-operated). Each rat received a single daily oral dose for 84 days of either 0.9% Sodium Chloride for Injection (controls) or 200-208 μg/kg of peptide as specified in Table 1. Doses were based upon a target dose of 50 μg/animal/day and group mean body weights determined at study initiation (Day 0). “Sham” indicates sham-operated rats; and “OVX” indicates ovariectomized rats. The dose range of 200-208 μg/kg/day employed in the study represents the target dose (50 μg/animal/day) in animals weighing […] at study initiation. The test samples for groups 1, 2, 3, and 4 were dissolved in 0.9% Sodium Chloride for injection and administered at once. All dosing was accomplished by oral gavage (dose volume 1.0-1.5 mL, adjusted weekly for bodyweight gain). Certified Rodent Diet #5002 (Purina Mills, Inc., St. Louis, Mo.) was provided during the quarantine/acclimation period and throughout the study. Clinical signs were observed once daily throughout the quarantine/acclimation and treatment periods. Individual body weights were recorded at the initiation of the dosing, once weekly throughout the treatment phase, and at necropsy. Animals were sacrificed approximately 24 hours after the administration of the final dose (Day 84). Terminal whole blood samples were collected from each animal for serum chemistry (i.e. measurement of serum calcium and phosphorus) evaluations via terminal cardiocentesis. Femurs were submitted for post-mortem bone mechanical strength and composition analysis.

[2] = tested on: ovariectomized female Sprague Dawley rats; assay: Three-point bending mechanical strength test of the femur in the ovariectomized rat osteoporosis model; assay type: in vivo; conditions: right femur, Day 84, vs. Group 5
Excerpt: Ovariectomized rats were chosen for the efficacy study of a series of peptides. After a six (6) day quarantine/acclimation period, forty (40) ovariectomized female Sprague Dawley outbred (Crl:CD®IGS BR) rats were randomly allocated into five experimental groups of eight animals each. A sixth group was composed of eight sham-operated Sprague Dawley rats. The experimental design consisted of four test-article groups and two vehicle control groups (one ovariectomized and one sham-operated). Each rat received a single daily oral dose for 84 days of either 0.9% Sodium Chloride for Injection (controls) or 200-208 μg/kg of peptide as specified in Table 1. Doses were based upon a target dose of 50 μg/animal/day and group mean body weights determined at study initiation (Day 0). “Sham” indicates sham-operated rats; and “OVX” indicates ovariectomized rats. The dose range of 200-208 μg/kg/day employed in the study represents the target dose (50 μg/animal/day) in animals weighing […] at study initiation. The test samples for groups 1, 2, 3, and 4 were dissolved in 0.9% Sodium Chloride for injection and administered at once. All dosing was accomplished by oral gavage (dose volume 1.0-1.5 mL, adjusted weekly for bodyweight gain). Certified Rodent Diet #5002 (Purina Mills, Inc., St. Louis, Mo.) was provided during the quarantine/acclimation period and throughout the study. Clinical signs were observed once daily throughout the quarantine/acclimation and treatment periods. Individual body weights were recorded at the initiation of the dosing, once weekly throughout the treatment phase, and at necropsy. Animals were sacrificed approximately 24 hours after the administration of the final dose (Day 84). Terminal whole blood samples were collected from each animal for serum chemistry (i.e. measurement of serum calcium and phosphorus) evaluations via terminal cardiocentesis. Femurs were submitted for post-mortem bone mechanical strength and composition analysis. The right femur of each animal was reserved for bone mechanical strength evaluation (i.e. three-point bending analysis). Femurs were placed on an apparatus in which two isolated points of the long bone were supported. Weight load was applied at the center of two supporting points toward the direction in which the bone is bent. […] Femurs were positioned with the anterior side toward the center load, and the posterior side toward the two supports. The loading was done in an Instron Model #1122 materials testing machine (Canton, Mass.). Testing was conducted with a displacement of 2.0 mm/minute. Load and displacement were recorded at 0.002 mm displacement intervals. Experiments were controlled using a computer-based data acquisition system running ASYST Scientific Software (Keithley-Metrabyte; Taunton, Mass.). The following data were generated: Maximum Load (in Newton, N); Initial Stiffness (in N/mm); Energy at Maximum (in Nmm) The value of the load was plotted against the deflection generating the load-deflection curve. Two points in the initial linear portion of the load-deflection curve were chosen by the operator at the time of testing. A line was constructed through the chosen points, the slope of which is the initial stiffness. The maximum load is the largest value of the load recorded during the flexural test. The energy at maximum is the area under the load-deflection curve up to the maximum load point.

Serum Ca^2+ [1]	Molecule	Urine Ca^2+ [1]	Serum AP (serum alkaline phosphatase) [1]	Serum Pi (serum inorganic phosphate) [1]	Energy at maximum compared with saline-treated ovariectomized controls (FIG. 6) [2]	Initial bone stiffness compared with saline-treated ovariectomized controls (FIG. 4) [2]	Maximum load compared with saline-treated ovariectomized controls (FIG. 5) [2]	Serum phosphorus concentration compared with controls (FIG. 1) ([1]; oral daily for 84 days, Day 84, vs saline-treated OVX controls and sham-operated controls)
11.0 ± 0.5 mg/dL	N[C@@H](COP(=O)(O)O)C(=O)NCC(=O)N[C@@H](COP(=O)(O)O)C(=O)NCC(=O)N[C@@H](COP(=O)(O)O)C(=O)NCC(=O)N[C@@H](COP(=O)(O)O)C(=O)NCC(=O)N[C@@H](COP(=O)(O)O)C(=O)NCC(=O)N[C@@H](COP(=O)(O)O)C(=O)NCC(=O)N[C@@H](COP(=O)(O)O)C(=O)NCC(=O)O [(Pse-Gly)7, Pse-Gly-Pse-Gly-Pse-Gly-Pse-Gly-Pse-Gly-Pse-Gly-Pse-Gly] (H-[pS]G[pS]G[pS]G[pS]G[pS]G[pS]G[pS]G-OH)	–	–	–	–	–	–	–
10.8 ± 0.6 mg/dL	N[C@@H](CO)C(=O)NCC(=O)N[C@@H](CO)C(=O)NCC(=O)N[C@@H](CO)C(=O)NCC(=O)N[C@@H](CO)C(=O)NCC(=O)N[C@@H](CO)C(=O)NCC(=O)N[C@@H](CO)C(=O)NCC(=O)N[C@@H](CO)C(=O)NCC(=O)O [(Ser-Gly)7, Ser-Gly-Ser-Gly-Ser-Gly-Ser-Gly-Ser-Gly-Ser-Gly-Ser-Gly] (H-SGSGSGSGSGSGSG-OH)	26.7 ± 22.9 mg/dL	134 ± 53 U/L	8.8 ± 1.0 mg/dL	–	–	–	–
–	Ser-Gly-Ser-Gly-Pse-Gly-Pse-Gly-Pse-Gly-Pse-Gly-Pse-Gly (SGSG[pS]G[pS]G[pS]G[pS]G[pS]G) [(Ser-Gly)2(Pse-Gly)5, Linear peptide, Pse = O-phosphoserine]	29.5 ± 20.0 mg/dL	121 ± 30 U/L	9.2 ± 1.3 mg/dL	statistically significant increase	statistically significant increase	statistically significant increase	–
–	Ser-Gly-Ser-Gly-Ser-Gly-Ser-Gly-Ser-Gly-Pse-Gly-Pse-Gly (SGSGSGSGSG[pS]G[pS]G) [(Ser-Gly)5(Pse-Gly)2, Linear peptide, Pse = O-phosphoserine]	26.6 ± 14.1 mg/dL	118 ± 18 U/L	7.9 ± 0.9 mg/dL	statistically significant increase	statistically significant increase	statistically significant increase	equivalent to or even lower than sham-operated controls
